The test concerns the target T1, HNRNPK (Homo sapiens, UniProt P61978).
T1 construct: GST-HNRNPK
The test is described as follows: surface plasmon resonance (Biacore […]), RNA-saturated GST-HNRNPK vs GST; a second estimate vs GST-HNRNPI gave Kd […]. The class given is binding.

Each structure is given as a SMILES string.

Take `CN(C)CCCOc1c(Br)cc(/C=C/C(=O)NCCCOc2c(Br)cc(CCN(C)C)cc2Br)cc1Br` [PA, Psammaplysene A]: the Kd was 77.3 µM.

A word on the Kd: it is the constant that tells how readily two partners part at equilibrium.

The record behind these values is article PMC5577601, “The Neuroprotective Marine Compound Psammaplysene A Binds the RNA-Binding Protein HNRNPK” (Marine Drugs, 2017).
